Measurements published in article PMC4992173, “Divergent synthesis and identification of the cellular targets of deoxyelephantopins” (Nature Communications, 2016).

How the values were obtained:
[1] = system: 11 identified targets in MCF7 cells; assay: Targeted in situ competitive profiling in live MCF7 cells, all 11 targets; format: cell-based, human; settings: intact MCF7 cells, 20 µM, 4 h, then 10 µM 24c
Description: (§1) In our efforts to determine the direct molecular targets of deoxyelephantopin we first performed a gel-based competitive in situ proteomic profiling assay[41] […] While the greater conformational flexibility of probe 24c could potentially lead to more promiscuous target engagement relatively to deoxyelephantopin, it was favoured based on the fact that an alkyne moiety appended to the rigid scaffold of deoxyelephantopin may hinder some of its interactions. MCF7 cells were pretreated with various concentrations of deoxyelephantopin for 4 h, harvested, lysed and the lysates were treated with the fluorogenic probe 24c-Cy3 (10 μM; Supplementary Fig. 10). […] Furthermore, cells were pretreated with 20 μM concentration of deoxyelephantopin or 24c and the proteomic profiles were compared (Fig. 6b, Supplementary Fig. 11). Multiple bands were detected that were equally competed by both DEP and 24c, thus again confirming that 24c can be used as an acceptable clickable analogue of deoxyelephantopin in pulldown assays. Having established the optimal labelling conditions by SDS–PAGE, we next carried out a mass spectrometry-based competitive profiling assay[42] coupled with the method of stable isotope labelling of amino acids in culture (SILAC)[43]. […]
(§2) Figure 6 Proteome-wide identification of deoxyelephantopin targets. […] Quantification was performed using label-free quantification (LFQ) method (n=4). […]

[2] = biological target: T1, Glyoxylate reductase/hydroxypyruvate reductase (GRHPR) (Homo sapiens, UniProt Q9UBQ7); assay: In situ competitive profiling in live MCF7 cells (LFQ): GRHPR; format: cell-based; settings: protein GRHPR, 4 h, then 10 µM 24c, n=4
T1 construct: endogenous in cells; host or cells: MCF7
T1 sequence (Q9UBQ7 whole entry): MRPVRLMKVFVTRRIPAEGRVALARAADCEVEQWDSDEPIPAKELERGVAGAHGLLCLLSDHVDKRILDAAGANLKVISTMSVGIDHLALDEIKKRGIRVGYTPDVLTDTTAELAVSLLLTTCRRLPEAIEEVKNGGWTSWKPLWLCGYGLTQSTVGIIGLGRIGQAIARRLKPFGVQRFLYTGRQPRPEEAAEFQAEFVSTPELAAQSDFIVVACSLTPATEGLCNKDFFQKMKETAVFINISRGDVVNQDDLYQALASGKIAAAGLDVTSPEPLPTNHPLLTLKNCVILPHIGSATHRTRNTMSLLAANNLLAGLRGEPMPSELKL
Description: as §1, §2

[3] = biological target: T2, Nucleoporin p54 (NUP54) (Homo sapiens, UniProt Q7Z3B4); assay: In situ competitive profiling in live MCF7 cells (LFQ): NUP54; format: cell-based; settings: protein NUP54, 4 h, then 10 µM 24c, n=4
T2 construct: endogenous in cells; host or cells: MCF7
T2 sequence (Q7Z3B4 whole entry): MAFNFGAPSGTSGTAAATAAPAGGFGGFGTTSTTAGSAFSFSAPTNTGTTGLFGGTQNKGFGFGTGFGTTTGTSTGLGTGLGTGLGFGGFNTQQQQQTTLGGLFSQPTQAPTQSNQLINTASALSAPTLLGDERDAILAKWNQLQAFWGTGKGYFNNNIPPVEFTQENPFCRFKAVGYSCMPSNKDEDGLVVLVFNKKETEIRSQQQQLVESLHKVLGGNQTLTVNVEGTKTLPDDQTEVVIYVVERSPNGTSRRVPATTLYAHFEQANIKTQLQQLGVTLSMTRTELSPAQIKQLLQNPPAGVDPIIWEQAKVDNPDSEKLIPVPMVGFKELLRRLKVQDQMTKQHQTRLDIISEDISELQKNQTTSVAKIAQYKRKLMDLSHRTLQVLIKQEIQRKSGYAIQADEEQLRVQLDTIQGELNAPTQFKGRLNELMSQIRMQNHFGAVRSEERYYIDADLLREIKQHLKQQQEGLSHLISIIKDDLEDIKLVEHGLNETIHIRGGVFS
Description: as §1, §2

With `C=C(C)C(=O)O[C@H]1CC2=C[C@@H](C/C(C)=C/[C@H]3OC(=O)C(=C)[C@H]13)OC2=O` [deoxyelephantopin] the “competition of all 11 targets in situ” value [1] was > 70%, the “LFQ ratio 20 µM Deoxyelephantopin/DMSO with 24c” value [2] was 0.00 and the “LFQ ratio 20 µM Deoxyelephantopin/DMSO with 24c” value [3] was 0.24.
